The results in this text go back to PMC6522510 (Nature Communications, 2019).

The structures appear in SMILES notation.

Design in all cases: species or system AML cell lines (8); Primary HTS, single concentration about 10 uM, Cell Titer Glo viability; log10 luminescence, per cent inhibition relative to cycloheximide control
What all share (conditions): 72 h, relative to cycloheximide control, log10 luminescence; inhibitor
A general note: ATP-based viability assays read luminescence as a measure of living cells.

The test system of test [1] is MV4-11.
For test [2], the system named is CMS.
Test [3] relates to CHRF288-11.
The subject of test [4] is ML-2.
For test [5], the system named is U937.
Test [6] relates to M07e.
In test [7] the test system is MOLM-13.
The test system of test [8] is CMK.

Regarding `Nc1nc(-c2ccc(F)cc2)c(-c2ccc3ncccc3n2)s1` [SJ000573357-1, R5931/120/1], in test [1], the MV4-11 %inh is reported as -0.2605%. Also, the CMS %inh in test [2] came to 0.9588%. Further, the CHRF288-11 %inh in test [3] worked out at 7.658%. Moreover, the ML-2 %inh in test [4] is recorded as -0.2788%. For the same compound, the U937 %inh in test [5] was found to be 3.577%. For the same compound, the M07e %inh in test [6] is 0.3459%. Further, the MOLM-13 %inh in test [7] was 3.49%. Moreover, the CMK %inh in test [8] is recorded as -0.6603%.

Regarding `CCS(=O)(=O)c1ccc(OC)c(Nc2ncc(-c3cccc(OC)c3)o2)c1` [SJ000573358-1, U15747/93/1], the MV4-11 %inh in test [1] stood at 70.44%. In test [2], the CMS %inh is on record as -1.141%. In test [3], the CHRF288-11 %inh worked out at 1.123%. In test [4], the ML-2 %inh amounted to 1.703%. Besides, the U937 %inh in test [5] came to 5.914%. Also, the M07e %inh in test [6] is -2.224%. The MOLM-13 %inh in test [7] is listed as 73.64%. Moreover, the CMK %inh in test [8] came to 8.053%.

`CCCCOCCOc1nc(-c2ccc(C(=O)O)c(F)c2)sc1C` [SJ000573474-2, AC 261066]: the MV4-11 %inh in test [1] was determined as 12.22%. Also, the CMS %inh in test [2] was 12.33%. The CHRF288-11 %inh in test [3] is recorded as 2.475e-05%. Further, the ML-2 %inh in test [4] is on record as 0.9412%. Moreover, in test [5], the U937 %inh worked out at 6.265%. Further, the M07e %inh in test [6] was 1.286%. The MOLM-13 %inh in test [7] was 4.751%. Besides, the CMK %inh in test [8] was determined as 1.422%.

With `CC1(C)CCC(C)(C)c2cc(C3(c4ccc5cc(C(=O)O)ccc5c4)SCCS3)ccc21` [SJ000573478-2, MM 11253], the MV4-11 %inh in test [1] worked out at 1.741%. Further, the CMS %inh in test [2] came out at 0.01284%. Further, the CHRF288-11 %inh in test [3] is -4.46%. Also, the ML-2 %inh in test [4] was determined as 0.2271%. Moreover, the U937 %inh in test [5] came to 1.985%. Moreover, in test [6], the M07e %inh is recorded as 1.802%. Further, the MOLM-13 %inh in test [7] stood at 2.534%. In test [8], the CMK %inh was -3.669%.

Turning to `CCOC(=O)C1=C(N)Oc2ccc(Br)cc2[C@H]1[C@H](C#N)C(=O)OCC` [SJ000574273-1, HA14-1], the MV4-11 %inh in test [1] is reported as 14.02%. Further, in test [2], the CMS %inh is 0.956%. The CHRF288-11 %inh in test [3] is reported as -0.6917%. The ML-2 %inh in test [4] is given as -0.1514%. Besides, the U937 %inh in test [5] came out at 6.381%. For the same compound, the M07e %inh in test [6] amounted to 0.5476%. For the same compound, the MOLM-13 %inh in test [7] turned out to be 2.194%. Moreover, in test [8], the CMK %inh is given as 4.094%.

Consider `CCCS(=O)(=O)Nc1ccc(F)c(C(=O)c2c[nH]c3ncc(-c4ccc(Cl)cc4)cc23)c1F` [SJ000574274-1, VEMURAFENIB | PLX-4032 | R-7204 | RG-7204 | RO-5185426 | PLX4032 | RG7204 | VEMURAFENIB (PLX4032, RG7204)], for which the MV4-11 %inh in test [1] is recorded as -4.805%. Also, the CMS %inh in test [2] amounted to 1.477%. Further, the CHRF288-11 %inh in test [3] was -2.721%. Besides, the ML-2 %inh in test [4] was -0.6517%. Besides, the U937 %inh in test [5] is reported as -0.9604%. In addition, in test [6], the M07e %inh is given as -0.8043%. Also, the MOLM-13 %inh in test [7] is given as -2.361%. Besides, the CMK %inh in test [8] amounted to 1.427%.

Turning to `NC(=O)c1ccc(-c2nc(-c3ccc4c(c3)OCO4)c(-c3ccccn3)[nH]2)cc1` [SJ000574283-1, SB-431542 | SB431542], the MV4-11 %inh in test [1] came out at 0.325%. For the same compound, the CMS %inh in test [2] stood at 0.4519%. The CHRF288-11 %inh in test [3] is reported as -7.63%. For the same compound, the ML-2 %inh in test [4] is recorded as 0.07602%. Further, the U937 %inh in test [5] is reported as -2.319%. In addition, the M07e %inh in test [6] is recorded as -4.824%. Further, the MOLM-13 %inh in test [7] is 3.22%. Besides, the CMK %inh in test [8] was -2.116%.

As for `CC(C)(C)c1cnc(CSc2cnc(NC(=O)C3CCNCC3)s2)o1` [SJ000574284-1, BMS-387032 | SNS-032], in test [1], the MV4-11 %inh came to 73.5%. In addition, the CMS %inh in test [2] turned out to be 97.36%. Besides, in test [3], the CHRF288-11 %inh was found to be 54.06%. For the same compound, the ML-2 %inh in test [4] is 59.52%. Further, in test [5], the U937 %inh is on record as 69.97%. For the same compound, the M07e %inh in test [6] was 111.6%. In addition, the MOLM-13 %inh in test [7] is 98.7%. Also, in test [8], the CMK %inh is 91.14%.

For `Cc1cc(Nc2cc(N3CCN(C)CC3)nc(Sc3ccc(NC(=O)C4CC4)cc3)n2)n[nH]1` [SJ000574290-1, TOZASERTIB | VX-680 | MK-0457 | VX6 | VX-680 | TOZASERTIB | MK-0457 | | VX-680 (TOZASERTIB, MK-0457)], the MV4-11 %inh in test [1] is on record as 64.96%. In test [2], the CMS %inh came out at 15.77%. Moreover, the CHRF288-11 %inh in test [3] was 110.2%. In addition, the ML-2 %inh in test [4] was 25.05%. For the same compound, the U937 %inh in test [5] was 19.84%. Moreover, the M07e %inh in test [6] is 61.91%. Besides, in test [7], the MOLM-13 %inh worked out at 88.48%. Also, in test [8], the CMK %inh is 63.64%.

Consider `CC(=O)Nc1cccc(-n2c(=O)n(C3CC3)c(=O)c3c(Nc4ccc(I)cc4F)n(C)c(=O)c(C)c32)c1` [SJ000574293-1, TRAMETINIB | GSK-1120212B | JTP-74057 | 1120212 | GSK-1120212 | GSK1120212 | TRAMETINIB (GSK1120212)], for which the MV4-11 %inh in test [1] is 40.11%. In addition, the CMS %inh in test [2] came out at 21.59%. The CHRF288-11 %inh in test [3] came to 30.11%. For the same compound, in test [4], the ML-2 %inh was found to be 27.14%. Further, the U937 %inh in test [5] amounted to 11.49%. The M07e %inh in test [6] was 16.11%. Further, the MOLM-13 %inh in test [7] was determined as 39.84%. Besides, the CMK %inh in test [8] was determined as 4.055%.

For the compound `N#CC[C@H](C1CCCC1)n1cc(-c2ncnc3[nH]ccc23)cn1` [SJ000574296-1, RUXOLITINIB | INCB-18424 | INCB-018424 | NCB018424 | INC-424 | INCB-424 | RUXOLITINIB | INCB-18424 | INCB-018424 | NCB018424 | INC-424 | INCB-424 | | RUXOLITINIB (INCB018424) | S-RUXOLITINIB (INCB018424)], the MV4-11 %inh in test [1] is 11.92%. Moreover, in test [2], the CMS %inh was determined as 86.42%. Also, the CHRF288-11 %inh in test [3] stood at 79.68%. Further, the ML-2 %inh in test [4] stood at 4.441%. Also, the U937 %inh in test [5] amounted to 33.85%. Besides, the M07e %inh in test [6] was determined as 44.64%. Moreover, in test [7], the MOLM-13 %inh is 27.41%. Moreover, the CMK %inh in test [8] was 85.02%.

Take `CCC(=O)O[C@]1(C(=O)CCl)[C@@H](C)C[C@H]2[C@@H]3C[C@H](F)C4=CC(=O)C=C[C@]4(C)[C@@]3(F)[C@@H](O)C[C@@]21C` [SJ000574311-1, HALOBETASOL PROPIONATE]: in test [1], the MV4-11 %inh came to 1.288%. Besides, in test [2], the CMS %inh is -1.131%. Besides, in test [3], the CHRF288-11 %inh was determined as 2.781%. The ML-2 %inh in test [4] is 0.4055%. For the same compound, the U937 %inh in test [5] came out at 2.458%. The M07e %inh in test [6] worked out at 1.449%. In addition, the MOLM-13 %inh in test [7] was -1.713%. Also, the CMK %inh in test [8] is listed as -5.875%.

For the compound `COC(=O)C1=C(C)N(CCc2cc(OC)c(OC)c(OC)c2)C(=O)N[C@H]1c1ccccc1` [SJ000579768-1], in test [1], the MV4-11 %inh came to 3.524%. For the same compound, the CMS %inh in test [2] is listed as -1.498%. For the same compound, in test [3], the CHRF288-11 %inh was -6.017%. In addition, in test [4], the ML-2 %inh is -0.773%. The U937 %inh in test [5] is -0.6782%. Further, in test [6], the M07e %inh is given as -5.412%. Also, the MOLM-13 %inh in test [7] is recorded as -2.193%. Further, the CMK %inh in test [8] is on record as -0.2715%.

As for `CC1(OC(=O)C2CCCC2)C(=O)C=C2C=C(c3ccsc3)N(CCCCO)C=C2C1=O` (centres unmarked) [SJ000579780-1], the MV4-11 %inh in test [1] is given as -0.2702%. Further, the CMS %inh in test [2] is reported as 0.1638%. For the same compound, the CHRF288-11 %inh in test [3] is listed as -0.7955%. In addition, the ML-2 %inh in test [4] is on record as -1.026%. In test [5], the U937 %inh was -0.2771%. Further, in test [6], the M07e %inh is -0.9393%. Moreover, the MOLM-13 %inh in test [7] worked out at 6.828%. The CMK %inh in test [8] is reported as -4.183%.

Consider `CC(=O)[C@@H]1[C@@H](C)N(Cc2ccccc2)C(=O)N[C@H]1c1cccc(C(F)(F)F)c1` [SJ000579797-1], for which the MV4-11 %inh in test [1] stood at 0.5112%. Besides, in test [2], the CMS %inh stood at 1.099%. For the same compound, the CHRF288-11 %inh in test [3] is 8.301%. Besides, the ML-2 %inh in test [4] amounted to 0.485%. Also, the U937 %inh in test [5] came out at 0.542%. The M07e %inh in test [6] is on record as -1.436%. The MOLM-13 %inh in test [7] is recorded as -2.815%. For the same compound, the CMK %inh in test [8] is listed as -5.628%.

Consider `COC(=O)CCC(=O)OC1(C)C(=O)C=C2C=C(C3CC3)N(Cc3ccc(OC)cc3)C=C2C1=O` (centres unmarked) [SJ000579817-1], for which, in test [1], the MV4-11 %inh was found to be 0.1893%. For the same compound, the CMS %inh in test [2] is recorded as 1.001%. For the same compound, in test [3], the CHRF288-11 %inh is -0.5157%. Also, the ML-2 %inh in test [4] came out at 0.04263%. For the same compound, the U937 %inh in test [5] is -0.6979%. The M07e %inh in test [6] turned out to be 4.577%. Also, the MOLM-13 %inh in test [7] is listed as 6.903%. Moreover, the CMK %inh in test [8] is 0.09613%.
